# Patent US9120824B2, “Cyclic amine derivatives as EP4 receptor agonists” (ROTTAPHARM BIOTECH S.R.L., priority 2011, dated 2015)
# Key:
# [1] = biological target: T1, hEP4 receptors (human EP4/HEK293 transfectant) (Homo sapiens, UniProt P35408); test: [3H]-PGE2 membrane binding assay; conditions: [3H]-PGE2 1 nM, human EP4/HEK293 membranes, compounds 1 nM to 1 μM; Ki by Cheng-Prusoff, pKi = -log10 Ki (M)
# T1 construct: expressed in transfected cells; host or cells: HEK-293, stably transfected; membrane fraction
# Text: (§1) Stable Expression of Human EP4 Receptors in the Human Embryonic Kidney (HEK293) Cell Line
# (§2) The cDNA clone of human EP4 receptor (NM_000958.2) was obtained from Invitrogen™: Ultimate™ ORF Clone Collection-Clone ID IOH46525. The coding sequence was subcloned in expression vector pcDNATM6.2/V5-DEST by Gateway technology (Invitrogen™).
# (§3) Human embryonic kidney cells (HEK-293) were stably transfected with expression vector for human EP4 receptor in according to the method described in FuGENE®6 Transfection Reagent's manual (Roche Applied Science®).
# (§4) Preparation of Membrane Fraction:
# (§5) The EP4 transfected cells were grown in Dulbecco's modified Eagle's medium containing 10% fetal bovine serum and 10 μg/ml Blasticidin S HCl (selection medium) at 37° C. in a humidified atmosphere of 5% CO2 in air.
# (§6) For the membrane preparation, cells in flask were harvested by hypotonical/mechanical lysis with chilled (4° C.) TE buffer (5 mM TRIS, 5 mM etylenediamine tetra-acetic acid (EDTA), pH 7.4).
# (§7) Cells were detached and lysed with 10 ml of hypotonic lysis buffer and by scraping. The cell lysate was vortexed for 30 sec and centrifuged at 40000×g at 4° C. for 22 min.
# a) Membrane Binding Assay[3H]-Prostaglandin E2
# The membrane pellet was resuspended in the same buffer (5 mM TRIS, 5 mM ethylenediamine tetra-acetic acid (EDTA), pH 7.4), and protein concentration was determined by Bradford method (Bio-Bad® assay).
# This membrane preparation was stored at −80° C. freezer until use for binding assay.
# ([^3H]-PGE2) membranes binding assays toward hEP4 receptors (human EP4/HEK293 transfectant, see above) and hEP2 receptors (human EP2/HEK293 transfectant, purchased from PerkinElmer Inc) were performed in 10 mM MES-KOH buffer pH6, containing 10 mM MgCl2 and 1 mM CaCl2 for EP4 binding assay or 50 mM Tris-Cl, BSA 0.5% for EP2 binding assay (according to supplier indication).
# Ten microgram of protein from membrane fractions were incubated in a total volume of 0.1 ml (EP4) or 0.2 ml (EP2) with 1 nM (EP4) or 3 nM (EP2) [^3H]-PGE2 (PerkinElmer Inc, 171 Ci/mmol). In both assays to determine the total binding or non specific binding, 1% DMSO or 1 μM prostaglandin E2 (EP4) or 100 μM (EP2) were added to reaction mixtures, respectively. Incubation was conducted in a polypropylene 96 multiwell for 90 min (EP4) or 60 min (EP2) at room temperature prior to separation of the bound and free radioligand by vacuum manifold rapid filtration on glass fiber filters (Unifilter GFB96, PerkinElmer Inc) pre-soaked in 0.3% polyethyleneimine. Filters were washed with ice cold buffer pH 7.4 (50 mM HEPES, NaCl 500 mM, BSA 0.1% for EP4 binding assay or 50 mM Tris-Cl for EP2 binding assays) and the residual [^3H]-PGE2 binding determined by solid scintillation counter (TopCount, PerkinElmer Inc).
# The affinity (Ki) of each compound was calculated according to the Cheng-Prousoff equation: Ki=IC50/(1+([C]/Kd)). Results were expressed as pKi (−log 10 Ki (M)
# [2] = biological target: T2, human EP4 receptor (Homo sapiens, UniProt P35408); test: cAMP assay on human EP4 membrane of transfected cells (AlphaScreen); assay type: biochemical; conditions: human EP4 HEK293 cell membranes
# T2 construct: expressed in transfected cells; host or cells: HEK-293, stably transfected; membrane fraction
# Text: as §1, §2, §3, §4, §5, §6, §7
# b) cAMP Assay on Human EP4 Membrane of Transfected Cells.
# The assay is based on the competition between endogenous cAMP and exogenously added biotinylated cAMP. The capture of cAMP is achieved by using a specific antibody conjugated to […] beads.
# Cell membranes prepared as described above, were resuspended in 1 ml stimulation buffer (HBSS 1×+BSA 0.1%+IBMX 0.5 mM+HEPES 5 mM+MgCl2 10 mM+GTP 1 nM+GDP 10 μM+ATP 100 μM-pH 7.4). Cell membranes were dispensed into white 384-well microplates at final concentration of 1 μg/well and used for the determination of cAMP with the alphascreen cAMP functional assay (EnVision-PerkinElmer). Cell membrane/anti-cAMP Acceptor beads mix (5 μl) and a mixture of analysed compounds (dissolved in 100% DMSO to a final maximal concentration of 0.01% DMSO)/PGE2 (5 μl) were incubated at room temperature (22-23° C.) for 30 min in the dark. The Biotinylated-cAMP and donor beads (15 μl) were dispensed into each well to start the competition reaction. After 1 h incubation RT (22-23° C.) in the dark the plate was read using EnVision platform to determine the cAMP level (excitation: 680 nm; emission:520,620 nm).
# cAMP standard curve (concentration range from 1×10-6 to 1×10-11 M in log intervals) with a negative control (no cAMP)
# a positive control:forskolin 10 μM
# Antagonism studies were performed stimulating HEK293 cell membrane with PGE2 3 nM. The AlphaScreen signal is plotted as a function of log concentration of cAMP and EC50 is determined. EC50 value is calculated by […].
# T1 sequence (P35408 whole entry): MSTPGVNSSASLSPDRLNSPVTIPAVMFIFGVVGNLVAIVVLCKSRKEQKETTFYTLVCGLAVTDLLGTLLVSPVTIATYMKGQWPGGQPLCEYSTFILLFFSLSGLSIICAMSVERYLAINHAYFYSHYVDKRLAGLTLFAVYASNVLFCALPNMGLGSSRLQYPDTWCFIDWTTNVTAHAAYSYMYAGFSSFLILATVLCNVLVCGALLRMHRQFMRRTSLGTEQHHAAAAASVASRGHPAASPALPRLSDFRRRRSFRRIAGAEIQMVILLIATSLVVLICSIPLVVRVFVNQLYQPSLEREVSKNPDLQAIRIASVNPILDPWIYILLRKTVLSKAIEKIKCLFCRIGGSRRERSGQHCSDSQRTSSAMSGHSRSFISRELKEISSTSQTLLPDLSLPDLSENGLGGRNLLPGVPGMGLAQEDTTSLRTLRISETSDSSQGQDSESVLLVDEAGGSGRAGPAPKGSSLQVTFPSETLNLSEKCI
# T2 sequence (P35408 whole entry): as above
Ki [1] [M],EC50 [2] [nM],SMILES
3.16e-08,1,"C[C@H](NC(=O)[C@H]1CCCCN1Cc1cccc(C(F)(F)F)c1)c1ccc(C(=O)O)cc1 [Example E5, lithium 4-((S)-1-((R)-1-(3-(trifluoromethyl)benzyl)piperidine-2-carboxamido)ethyl)benzoate]"
7.94e-09,2.9,"O=C(O)c1ccc(C2(NC(=O)[C@H]3CCCCN3Cc3cccc(C(F)(F)F)c3)CC2)cc1 [Example E9, lithium (R)-4-(1-(1-(3-(trifluoromethyl)benzyl)piperidine-2-carboxamido)cyclopropyl)benzoate]"
3.16e-08,6,"Cc1cc(CN2CCCC[C@@H]2C(=O)NC2(c3ccc(C(=O)O)cc3)CC2)ccc1F [Example E12, (R)-4-(1-(1-(4-fluoro-3-methylbenzyl)piperidine-2-carboxamido)cyclopropyl)benzoic acid]"
1e-08,8,"O=C(O)c1ccc(C2(NC(=O)[C@H]3CCCCN3Cc3ccc(F)c(C(F)(F)F)c3)CC2)cc1 [Example E13, lithium (R)-4-(1-(1-(4-fluoro-3-(trifluoromethyl)benzyl)piperidine-2-carboxamido)cyclopropyl)benzoate]"
2e-08,13.5,"C[C@H](NC(=O)[C@H]1CCCN1Cc1cccc(C(F)(F)F)c1)c1ccc(C(=O)O)cc1 [Example E15, lithium 4-((S)-1-((R)-1-(3-(trifluoromethyl)benzyl)pyrrolidine-2-carboxamido)ethyl)benzoate]"
3.98e-08,0.1,"C[C@H](NC(=O)[C@H]1C[C@@H](O)CN1Cc1cccc(C(F)(F)F)c1)c1ccc(C(=O)O)cc1 [Example E19, lithium 4-((S)-1-((2R,4R)-4-hydroxy-1-(3-(trifluoromethyl)benzyl)pyrrolidine-2-carboxamido)ethyl)benzoate]"
